Data reported in patent US20180327367A1, “MACROCYCLIC BROAD SPECTRUM ANTIBIOTICS” (priority 2015, published 2018).
In brackets after ≈: the same amount, converted by molar mass.

What was measured:
Type in all cases: cell-based
[1] = test system: Escherichia coli MC4100 harboring the IMP4213 (E. coli IMP); test: microbe, parasite or virus in culture; details: Escherichia coli, 22 h, read-out: MIC (μg/mL) E. coli IMP, E. coli MC4100 IMP4213, increased outer-membrane permeability; 35° C., 22 hours
Experimental: (§1) In vitro antimicrobial activity of each compound was determined by measuring minimal inhibitor concentrations (MICs) using the broth micro-dilution technique as approved by the Clinical and Laboratory Standards Institute (CLSI) (Methods for Dilution Antimicrobial Susceptibility Tests for Bacteria that Grow Aerobically; Approved Standard—Eighth Edition. CLSI document M07-A8. Wayne, Pa.: Clinical and Laboratory Standards; 2009). Antibacterial activity was measure against three strains of bacteria: a Methicillin Resistant Staphylococcus aureus strain USA 300, NRS384 (S. aureus); a strain of Escherichia coli MC4100 harboring the IMP4213 (E. coli IMP), which results in increased outer-membrane permeability (B Martin and Silhavy T. Imp/OstA is required for cell envelope biogenesis in Escherichia coli. (2002) Molecular Microbiology, 45(5), 1289-1302), and Escherichia coli ATCC 25922 (E. coli), a clinically relevant Gram-negative strain. Cells were inoculated onto plates of Trypyticase Soy Agar or Luria Agar respectively and grown at 35° C. for 20 hours. Inocula suspensions were prepared by scraping cells into 1 mL of testing media (cation adjusted Mueller Hinton Broth supplemented with 0.002% v/v Tween-80) and diluting to a final OD600 nm of 0.01.
(§2) Test compounds were prepared in DMSO at a concentration of 10 mg/mL. […] In protocol 2, the compound stocks were diluted into testing media at a concentration of 4 μg/mL and serial 2-fold dilutions were made in the same media, in 96-well U bottom microtiter dishes, for a total of 10 compound concentrations. In protocol 3, compound stocks were diluted into testing media at a concentration of 0.5 μg/mL, with serial 2-fold dilutions conducted as described above. […] Inocula suspensions were added to the 2-fold serial dilutions of test compounds to a final density of OD OD600 nm of 0.0005 and incubated at 35° C. for 22 hours.

[2] = test system: Methicillin Resistant Staphylococcus aureus strain USA 300, NRS384; test: Minimum inhibitory concentration, broth micro-dilution (CLSI), S. aureus; details: Staphylococcus aureus, MRSA / NRS 384 / USA300, 22 h, MRSA USA 300 NRS384; 35° C., 22 hours; read-out: MIC (μg/mL) S. aureus
Experimental: as §1, §2

[3] = test system: Escherichia coli ATCC 25922; test: Minimum inhibitory concentration, broth micro-dilution (CLSI), E. coli; details: Escherichia coli, ATCC25922, 22 h, E. coli ATCC 25922; 35° C., 22 hours; read-out: MIC (μg/mL) E. coli
Experimental: Cells were inoculated onto plates of Trypyticase Soy Agar or Luria Agar respectively and grown at 35° C. for 20 hours. Inocula suspensions were prepared by scraping cells into 1 mL of testing media (cation adjusted Mueller Hinton Broth supplemented with 0.002% v/v Tween-80) and diluting to a final OD600 nm of 0.01.
as §2

Compound	MIC [1] [µg/mL]	MIC [2] [µg/mL]	MIC [3] [µg/mL]
Cc1cc(-c2ccc(CC(C)C)cc2)ncc1C(=O)N[C@@H](CCN)C(=O)N(C)[C@@H]1C(=O)N[C@@H](C)C(=O)N[C@H](C(=O)NCC#N)Cc2ccc(OCCN)c(c2)-c2cc1ccc2OCCN [Compound 167]	0.0049 (≈ 0.00551 µM)	0.023 (≈ 0.0259 µM)	0.14 (≈ 0.157 µM)
Cc1nc(-c2ccc(CC(C)C)cc2)ccc1C(=O)N[C@@H](CCN)C(=O)N(C)[C@@H]1C(=O)N[C@@H](C)C(=O)N[C@H](C(=O)NCC#N)Cc2ccc(OCCN)c(c2)-c2cc1ccc2OCCN [Compound 169]	0.0078 (≈ 0.00877 µM)	0.023 (≈ 0.0259 µM)	0.13 (≈ 0.146 µM)
Cc1cc(-c2ccc(CC(C)C)cn2)ccc1C(=O)N[C@@H](CCN)C(=O)N(C)[C@@H]1C(=O)N[C@@H](C)C(=O)N[C@H](C(=O)NCC#N)Cc2ccc(OCCN)c(c2)-c2cc1ccc2OCCN [Compound 173]	0.016 (≈ 0.018 µM)	0.094 (≈ 0.106 µM)	0.31 (≈ 0.349 µM)
Cc1cc(-c2ccc(CC(C)C)nn2)ccc1C(=O)N[C@@H](CCN)C(=O)N(C)[C@@H]1C(=O)N[C@@H](C)C(=O)N[C@H](C(=O)NCC#N)Cc2ccc(OCCN)c(c2)-c2cc1ccc2OCCN [Compound 180]	0.38 (≈ 0.427 µM)	1 (≈ 1.12 µM)	8 (≈ 8.99 µM)
Cc1cc(-c2ccc(CC(C)C)nc2)ccc1C(=O)N[C@@H](CCN)C(=O)N(C)[C@@H]1C(=O)N[C@@H](C)C(=O)N[C@H](C(=O)NCC#N)Cc2ccc(OCCN)c(c2)-c2cc1ccc2OCCN [Compound 181]	0.031 (≈ 0.0349 µM)	0.13 (≈ 0.146 µM)	2 (≈ 2.25 µM)
CCCCCCCc1cc(C)c(C(=O)N[C@@H](CCN)C(=O)N(C)[C@@H]2C(=O)N[C@@H](C)C(=O)N[C@H](C(=O)NCC#N)Cc3ccc(OCCN)c(c3)-c3cc2ccc3OCCN)c(C)c1 [Compound 189]	0.023 (≈ 0.0265 µM)	0.031 (≈ 0.0357 µM)	0.19 (≈ 0.219 µM)
CCCCc1cccc(C(=O)N[C@@H](CCCN)C(=O)N(C)[C@@H]2C(=O)N[C@@H](C)C(=O)N[C@H](C(=O)NCC#N)Cc3ccc(OCCN)c(c3)-c3cc2ccc3OCCN)c1C [Compound 206]	0.094 (≈ 0.114 µM)	0.38 (≈ 0.46 µM)	16 (≈ 19.4 µM)
CCCCc1ccc(C)c(C(=O)N[C@@H](CCCN)C(=O)N(C)[C@@H]2C(=O)N[C@@H](C)C(=O)N[C@H](C(=O)NCC#N)Cc3ccc(OCCN)c(c3)-c3cc2ccc3OCCN)c1 [Compound 207]	0.063 (≈ 0.0763 µM)	1.5 (≈ 1.82 µM)	16 (≈ 19.4 µM)
CCCCCCCCc1ccc(C(=O)N[C@@H](CCN)C(=O)N(C)[C@@H]2C(=O)N[C@@H](C)C(=O)N[C@H](C(=O)NCC#N)Cc3ccc(OCCN)c(c3)-c3cc2ccc3OCCN)c(Br)c1 [Compound 211]	0.055 (≈ 0.059 µM)	0.063 (≈ 0.0675 µM)	0.11 (≈ 0.118 µM)
Cc1cc(-c2ccc(CC(C)C)cc2)ccc1C(=O)N[C@@H](CC(N)=O)C(=O)N(C)[C@@H]1C(=O)N[C@@H](C)C(=O)N[C@H](C(=O)NCC#N)Cc2ccc(OCCN)c(c2)-c2cc1ccc2OCCN [Compound 240]	0.094 (≈ 0.104 µM)	0.19 (≈ 0.211 µM)	1.5 (≈ 1.66 µM)
CCCCCCCCc1ccc(C(=O)N[C@@H](CCC(N)=O)C(=O)N(C)[C@@H]2C(=O)N[C@@H](C)C(=O)N[C@H](C(=O)NCC#N)Cc3ccc(OCCN)c(c3)-c3cc2ccc3OCCN)c(C)c1 [Compound 247]	0.094 (≈ 0.105 µM)	0.094 (≈ 0.105 µM)	2 (≈ 2.23 µM)
Cc1cc(-c2ccc(CC(C)C)cc2)ccc1C(=O)N[C@@H](CCC(N)=O)C(=O)N(C)[C@@H]1C(=O)N[C@@H](C)C(=O)N[C@H](C(=O)NCC#N)Cc2ccc(OCCN)c(c2)-c2cc1ccc2OCCN [Compound 248]	0.094 (≈ 0.103 µM)	0.19 (≈ 0.207 µM)	1 (≈ 1.09 µM)
CCCCCCCCc1ccc(C(=O)N[C@H](C)C(=O)N(C)[C@@H]2C(=O)N[C@@H](C)C(=O)N[C@H](C(=O)NCC#N)Cc3ccc(OCCN)c(c3)-c3cc2ccc3OCCN)c(C)c1 [Compound 251]	4 (≈ 4.77 µM)	4 (≈ 4.77 µM)	8 (≈ 9.53 µM)
CCCCCCCCc1ccc(C(=O)NCC(=O)N(C)[C@@H]2C(=O)N[C@@H](C)C(=O)N[C@H](C(=O)NCC#N)Cc3ccc(OCCN)c(c3)-c3cc2ccc3OCCN)c(C)c1 [Compound 252]	0.023 (≈ 0.0279 µM)	0.25 (≈ 0.303 µM)	2 (≈ 2.42 µM)
C[C@@H]1NC(=O)[C@@H](N(C)C(=O)[C@H](CCO)NC(=O)c2ccc(-c3ccc(Cl)cc3)cc2)c2ccc(OCCN)c(c2)-c2cc(ccc2OCCN)C[C@@H](C(=O)NCC#N)NC1=O [Compound 259]	0.25 (≈ 0.293 µM)	0.5 (≈ 0.586 µM)	64 (≈ 75 µM)
Cc1cc(OCC2CCC(F)(F)CC2)ccc1C(=O)N[C@@H](CCN)C(=O)N(C)[C@@H]1C(=O)N[C@@H](C)C(=O)N[C@H](C(=O)NCC#N)Cc2ccc(OCCN)c(c2)-c2cc1ccc2OCCN [Compound 278]	0.13 (≈ 0.144 µM)	0.5 (≈ 0.553 µM)	4 (≈ 4.42 µM)
C[C@@H]1NC(=O)[C@@H](N(C)C(=O)[C@H](CCN)NC(=O)c2ccc(OCC(C)(C)C)cc2Cl)c2ccc(OCCN)c(c2)-c2cc(ccc2OCCN)C[C@@H](C(=O)NCC#N)NC1=O [Compound 279]	0.02 (≈ 0.0232 µM)	0.13 (≈ 0.151 µM)	0.5 (≈ 0.58 µM)
C=CCC(C)(C)COc1ccc(C(=O)N[C@@H](CCN)C(=O)N(C)[C@@H]2C(=O)N[C@@H](C)C(=O)N[C@H](C(=O)NCC#N)Cc3ccc(OCCN)c(c3)-c3cc2ccc3OCCN)c(C)c1 [Compound 285]	0.0078 (≈ 0.00899 µM)	0.063 (≈ 0.0726 µM)	0.75 (≈ 0.864 µM)
Cc1cc(OCC2C[C@H]3CC[C@@H]2C3)ccc1C(=O)N[C@@H](CCN)C(=O)N(C)[C@@H]1C(=O)N[C@@H](C)C(=O)N[C@H](C(=O)NCC#N)Cc2ccc(OCCN)c(c2)-c2cc1ccc2OCCN (stereo partly drawn) [Compound 287]	0.0078 (≈ 0.00886 µM)	0.094 (≈ 0.107 µM)	0.38 (≈ 0.432 µM)
CCCCCCCOc1ccc(C(=O)N[C@@H](CCN)C(=O)N(C)[C@@H]2C(=O)N[C@@H](C)C(=O)N[C@H](C(=O)NCC#N)Cc3ccc(OCCN)c(c3)-c3cc2ccc3OCCN)c(C)c1C [Compound 294]	0.0078 (≈ 0.00882 µM)	0.063 (≈ 0.0713 µM)	0.25 (≈ 0.283 µM)
C[C@@H]1NC(=O)[C@@H](N(C)C(=O)[C@H](CCN)NC(=O)c2ccc(OCC(C)(C)C)c3ccccc23)c2ccc(OCCN)c(c2)-c2cc(ccc2OCCN)C[C@@H](C(=O)NCC#N)NC1=O [Compound 296]	0.031 (≈ 0.0353 µM)	0.047 (≈ 0.0535 µM)	2 (≈ 2.28 µM)
CCCCCCOCc1ccc(C(=O)N[C@@H](CCN)C(=O)N(C)[C@@H]2C(=O)N[C@@H](C)C(=O)N[C@H](C(=O)NCC#N)Cc3ccc(OCCN)c(c3)-c3cc2ccc3OCCN)c(Cl)c1 [Compound 297]	0.0078 (≈ 0.00876 µM)	0.063 (≈ 0.0707 µM)	1 (≈ 1.12 µM)
CCCCCCCn1cc(C(=O)N[C@@H](CCN)C(=O)N(C)[C@@H]2C(=O)N[C@@H](C)C(=O)N[C@H](C(=O)NCC#N)Cc3ccc(OCCN)c(c3)-c3cc2ccc3OCCN)c(C)nc1=O [Compound 301]	4 (≈ 4.59 µM)	4 (≈ 4.59 µM)	> 64
Cc1nc(C#CC2CCCCC2)ncc1C(=O)N[C@@H](CCN)C(=O)N(C)[C@@H]1C(=O)N[C@@H](C)C(=O)N[C@H](C(=O)NCC#N)Cc2ccc(OCCN)c(c2)-c2cc1ccc2OCCN [Compound 312]	0.023 (≈ 0.0266 µM)	0.25 (≈ 0.289 µM)	0.5 (≈ 0.579 µM)
CCCCCCCc1ccc(C(=O)N[C@@H](CCN)C(=O)N(C)[C@@H]2C(=O)N[C@@H](C)C(=O)N[C@H](C(=O)NCC#N)Cc3ccc(O)c(c3)-c3cc2ccc3OCCN)c(C)c1 [Compound 314]	0.023 (≈ 0.0284 µM)	0.078 (≈ 0.0962 µM)	0.44 (≈ 0.543 µM)
